Earlier results as cited in US20030083378A1, “Eye drops” (priority 2000, published 2003).

What was measured:
leukotrienes = conditions: Japanese Unexamined Patent Publication No. Hei 2-1459
respiratory anaphylaxis = conditions: Japanese Unexamined Patent Publication No. Hei 2-1459

For `CCCc1c(SCCCOc2ccc(C(C)=O)c(OCCCC(=O)O)c2CCC)ccc(C(C)=O)c1O` [KCA-757, 4-[6-acetyl-3-[3-[(4-acetyl-3-hydroxy-2-propylphenyl)thio]propoxy]-2-propylphenoxy]butyric acid], the Leukotriene antagonist activity (leukotrienes) is listed as “potent and selective leukotriene antagonist activity”, the “Inhibitory function on respiratory anaphylaxis” value (respiratory anaphylaxis) is listed as “inhibitory function on respiratory anaphylaxis” and the Solubility is listed as “slightly soluble”.
